Measurements reported in article PMC12651750 (Cells, 2025).
Read-outs that look alike come from different tables or passages of the source.

Legend:
[1] = system: HUVEC, human umbilical vein endothelial cells; test: Toxicity on normal cells (MTT / CCK-8 assay); format: cell-based
Method: (§1) These cells were purchased from the National Collection of Authenticated Cell Cultures (Shanghai, China).
(§2) The concentration of the cell suspension was adjusted to the appropriate concentration with fresh medium (the number of cells was about 30–40% of the bottom area of the well plate). 150 μL (about 1 × 10^4 cells) of prepared cell suspension containing different concentrations of NBU-2 were added to a 96-microtiter plate, and 3 replicate wells were set up for each concentration. If the cells were adherent, the cells were first allowed to grow overnight in 96 microtiter plates until the cells were adherent, and then the old medium was replaced with the drug-containing medium. The plates were incubated in a 5% CO2 cell incubator at 37 °C for 72 h. Then, 15 μL of MTT solution was added to each well, 100 μL of 10% SDS solution (pH = 2) was added after 4 h, and the plate was incubated at 37 °C with 5% CO2 overnight to fully dissolve the crystals.
(§3) The cells (about 1 × 10^4 cells) were treated with different concentrations of NBU-2 and DMSO control for different times (24 h, 48 h, 72 h), with 3 replicate wells for each concentration. Incubate at 37 °C in a 5% CO2 cell culture incubator. After a predetermined time, 10 μL of CCK-8 was added to each well and incubated for 2 h. The absorbance was measured at the excitation wavelength of 450 nm.

[2] = system: A549, human lung cancer cell line; test: Anti-proliferation MTT / CCK-8 assay; format: cell-based; conditions: A549, read-out: IC50 proliferation A549, heading: IC50 proliferation A549, 72 h, mean ± SEM of three independent assays
Excerpt: (§4) K562, human erythroleukemia line; HL-60, human leukemic cell line; Jurkat, human leukemic T cell line; CCRF-CEM, human leukemic lymphoblasts; U937, human histiocytic lymphoma; HCT-116, human colorectal cancer cell line; A549, human lung cancer cell line; Hep G2, human hepatoma cell lines; MDA-MB-231, MCF-7, human breast cancer cell line; 4T1, mouse breast cancer cell line; PC12, pheochromocytoma of the rat adrenal medulla; HUVEC, human umbilical vein endothelial cells. These cells were purchased from the National Collection of Authenticated Cell Cultures (Shanghai, China).
as §2, with “crystals. Finally, the absorbance value of each well was measured at 570 and 655 nm.” for “crystals.”
as §3

[3] = system: HL-60, human leukemic cell line; test: Anti-proliferation MTT / CCK-8 assay; format: cell-based
Excerpt: as §4
as §2, with “crystals. Finally, the absorbance value of each well was measured at 570 and 655 nm.” for “crystals.”
as §3

[4] = system: HCT-116, human colorectal cancer cell line; test: Anti-proliferation MTT / CCK-8 assay; format: cell-based; conditions: HCT-116, read-out: IC50 proliferation HCT-116, heading: IC50 proliferation HCT-116, 72 h, mean ± SEM of three independent assays
Excerpt: as §4
as §2, with “crystals. Finally, the absorbance value of each well was measured at 570 and 655 nm.” for “crystals.”
as §3

[5] = system: PC12, pheochromocytoma of the rat adrenal medulla; test: Anti-proliferation MTT / CCK-8 assay; format: cell-based; conditions: PC-12, 72 h
Excerpt: as §4
as §2, with “crystals. Finally, the absorbance value of each well was measured at 570 and 655 nm.” for “crystals.”
as §3

[6] = system: 4T1, mouse breast cancer cell line; test: Anti-proliferation MTT / CCK-8 assay; format: cell-based; conditions: 72 h
Excerpt: as §4
as §2, with “crystals. Finally, the absorbance value of each well was measured at 570 and 655 nm.” for “crystals.”
as §3

[7] = system: Hep G2, human hepatoma cell lines; test: Anti-proliferation MTT / CCK-8 assay; format: cell-based; conditions: HepG2, read-out: IC50 proliferation HepG2, heading: IC50 proliferation HepG2, 72 h, mean ± SEM of three independent assays
Excerpt: as §4
as §2, with “crystals. Finally, the absorbance value of each well was measured at 570 and 655 nm.” for “crystals.”
as §3

[8] = system: K562, human erythroleukemia line; test: Anti-proliferation MTT / CCK-8 assay; format: cell-based; conditions: K562, read-out: IC50 proliferation K562, heading: IC50 proliferation K562, 72 h, mean ± SEM of three independent assays
Excerpt: as §4
as §2, with “crystals. Finally, the absorbance value of each well was measured at 570 and 655 nm.” for “crystals.”
as §3

[9] = system: MCF-7, human breast cancer cell line; test: Anti-proliferation MTT / CCK-8 assay; format: cell-based; conditions: MCF7, read-out: IC50 proliferation MCF-7, heading: IC50 proliferation MCF-7, 72 h, mean ± SEM of three independent assays
Excerpt: as §4
as §2, with “crystals. Finally, the absorbance value of each well was measured at 570 and 655 nm.” for “crystals.”
as §3

[10] = system: CCRF-CEM, human leukemic lymphoblasts; test: Anti-proliferation MTT / CCK-8 assay; format: cell-based
Excerpt: as §4
as §2, with “crystals. Finally, the absorbance value of each well was measured at 570 and 655 nm.” for “crystals.”
as §3

[11] = system: MDA-MB-231, human breast cancer cell line; test: Anti-proliferation MTT / CCK-8 assay; format: cell-based; conditions: MDA-MB-231, read-out: IC50 proliferation MDA-MB-231, heading: IC50 proliferation MDA-MB-231, 72 h, mean ± SEM of three independent assays
Excerpt: as §4
as §2, with “crystals. Finally, the absorbance value of each well was measured at 570 and 655 nm.” for “crystals.”
as §3

[12] = system: U937, human histiocytic lymphoma; test: Anti-proliferation MTT / CCK-8 assay; format: cell-based
Excerpt: as §4
as §2, with “crystals. Finally, the absorbance value of each well was measured at 570 and 655 nm.” for “crystals.”
as §3

[13] = system: Jurkat, human leukemic T cell line; test: Anti-proliferation MTT / CCK-8 assay; format: cell-based; conditions: 72 h; for IC50: Homo sapiens, Jurkat
Method: as §1, §2, §3

Jurkat cells [14] = test: Cell cycle analysis (propidium iodide, flow cytometry); format: cell-based, human; conditions: 48 h
Method: Jurkat cells were cultured to the appropriate density. Jurkat cells were stimulated with three concentration gradients of 0.2 µM, 1 µM, and 5 µM of NBU-2, and DMSO (as a control) for 48 h. Cells were collected, fixed overnight using pre-cooled 70% ethanol, and then stained according to the instructions. Subsequently, flow cytometry was used to detect using flow cytometry.

HDAC1 = HDAC1 (Homo sapiens, UniProt Q13547); test: In vitro HDAC enzymatic inhibition assay (HDAC kit, fluorescence)
Method: Enzymatic assays were performed by Shanghai ChemPartner according to the HDAC kit protocol. […] Fluorescence was recorded at 355 nm excitation and 460 nm emission on a Synergy MX reader (PerkinElmer Life Sciences, Boston, MA, USA). IC50 values were derived from dose–response curves.

Jurkat cells [15] = test: Reactive oxygen species assay (DCFH-DA probe); format: cell-based, human; conditions: 0.2, 1, 5 µM, 48 h; concentration-dependent
Method: Cells were treated with 0.2 µM, 1 µM, 5 µM, and DMSO for 48 h. Then the probes were loaded using serum-free medium and incubated for 20 min at 37 °C in a cell incubator. Next, the cells were collected.

Chain of HDAC1 (Q13547 whole entry): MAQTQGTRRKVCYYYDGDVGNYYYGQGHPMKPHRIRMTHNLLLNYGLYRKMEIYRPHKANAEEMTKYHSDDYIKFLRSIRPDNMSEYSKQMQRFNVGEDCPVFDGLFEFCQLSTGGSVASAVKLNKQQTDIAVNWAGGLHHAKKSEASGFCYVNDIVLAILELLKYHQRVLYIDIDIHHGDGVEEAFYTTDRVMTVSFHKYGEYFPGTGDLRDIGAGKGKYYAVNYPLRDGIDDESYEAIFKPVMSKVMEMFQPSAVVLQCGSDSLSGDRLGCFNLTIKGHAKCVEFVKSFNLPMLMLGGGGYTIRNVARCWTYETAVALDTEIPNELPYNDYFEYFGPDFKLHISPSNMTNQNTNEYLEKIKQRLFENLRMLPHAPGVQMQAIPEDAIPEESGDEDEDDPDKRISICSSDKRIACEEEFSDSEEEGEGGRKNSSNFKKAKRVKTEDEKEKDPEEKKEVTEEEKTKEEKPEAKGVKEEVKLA

IC50 [2]: 33.7 ± 2.15 µM
IC50 ([3]; HL-60, 72 h, read-out: IC50 against HL-60): < 5 µM
IC50 ([3]; HL-60, read-out: IC50 proliferation HL-60, heading: IC50 proliferation HL-60, 72 h, mean ± SEM of three independent assays): 1.92 ± 0.08 µM
IC50 [4]: 7.06 ± 1.48 µM
IC50 [5]: > 0.05 µM
IC50 [6]: > 0.05 µM
IC50 [7]: 7.55 ± 0.46 µM
IC50 [8]: 7.02 ± 1.85 µM
IC50 [9]: 14.9 ± 3.21 µM
IC50 ([10]; 72 h, read-out: IC50 against CCRF-CEM): < 5 µM
IC50 ([10]; read-out: IC50 proliferation CCRF-CEM, 72 h, mean ± SEM of three independent assays): 2.68 ± 0.3 µM
IC50 [11]: 8.76 ± 1.88 µM
IC50 ([12]; U-937, 72 h, read-out: IC50 against U937): < 5 µM
IC50 ([12]; U-937, read-out: IC50 proliferation U937, heading: IC50 proliferation U937, 72 h, mean ± SEM of three independent assays): 2.34 ± 1.08 µM
IC50 ([13]; read-out: IC50 against Jurkat cells): 0.86 µM
IC50 ([13]; read-out: IC50 proliferation Jurkat, heading: IC50 proliferation Jurkat, mean ± SEM of three independent assays): 0.86 ± 0.13 µM
IC50 (HDAC1): 0.00775 ± 0.00057 µM
Structure (SMILES): Cc1cccc2c(=O)c3c(NCCCCCC(=O)NO)ccc([N+](=O)[O-])c3[nH]c12 [NBU-2, N-hydroxy-6-((5-methyl-4-nitro-9-oxo-9,10-dihydroacridin-1-yl)amino)hexanamide]
IC50 ([1]; 72 h, read-out: IC50 anti-proliferative activity against HUVECs): 35.6 µM
IC50 ([1]; read-out: IC50 proliferation HUVEC (normal cells), heading: IC50 proliferation HUVEC, 72 h, mean ± SEM of three independent assays): 35.6 ± 7.3 µM
Inhibitory effect on Jurkat cells over time ([13]; CCK-8, 24 h, 48 h, various concentrations): concentration and time-dependent
Percentage of cells in G0/G1 phase (2N) (Jurkat cells [14]; 0.2 μM): 35.3%
Percentage of cells in G0/G1 phase (2N) (Jurkat cells [14]; 1 μM): 40.4%
Percentage of cells in G0/G1 phase (2N) (Jurkat cells [14]; 5 μM): 57.9%
Levels of reactive oxygen species relative to DMSO (Jurkat cells [15]): significantly increased
